Measured values reported in patent US20180318291A1, “USE OF AMINOTHIAZOLE MYD88 SPECIFIC INHIBITOR TJM2010-5” (WUHAN INNAMUNE PHARMACEUTICAL INC. LTD., priority 2015, published 2018).

Key:
Format in all cases: in vivo
mice with endoxemia = assay: endoxemia lethal experiment (LPS); details: 250 mg/kg intragastric once a day for three days, then LPS ip; FIG. 15(a)
Description: Part one: Observe the effect of MyD88 inhibitor on mortality of mice with endoxemia. The mice will be divided into 2 groups randomly:
Vehicle control group and experiment group (TJM2010-5 treatment group), and 20 mice in each group. Where, the TJM2010-5 treatment group is provided with the intragastric administration of TJM2010-5 (0.5% CMC solvent, 25 mg/ml) at the dose of 250 mg/kg (200 μL per mouse); the vehicle control group is provided with the intragastric administration of 0.5% CMC, 200 μL per mouse. Apply the intragastric administration once a day, and for three days successively. And on day 3, after the […], provide the intraperitoneal injection of LPS 1 hour later, then, observe the survival condition every twelve hours, and for three days.

[1] = tested on: skin of Balb/c mice transplanted to C57bl/6 mice; assay: mice skin transplantation model (graft survival, tolerance); details: Balb/c skin to C57bl/6; TJM2010-5 150 mg/kg/d ip, MR1 200 μg/d ip
Description: 2) Application of TJM2010-5 combined with costimulatory molecules inhibitor-anti-CD154 monoclonal antibody (MR1) in mice skin transplantation model
Five groups are set in the experiment, which are: allogeneic skin grafting control group (the rejection time reported in literature is 8-10 days), TJM2010-5 group, MR1 group and combination treatment group (TJM2010-5+MR1).
The specific handling methods as follows:
Allogeneic skin grafting CMC control group: take and transplant the skin of Balb/c mice to the back of C57bl/6 mice, and provide intraperitoneal injection of 0.5% CMC on day 0 to day 3, and day 5, 7, 9, 11, 13, 15 after the operation, the does is 200 μl/day; in the homogenic skin transplantation group: take and transplant the […] of C57bl/6 mice to the back of C57bl/6 mice, and no special treatment is provided after operation.
The TJM2010-5 Group: take and transplant the skin of Balb/c mice to the back of C57bl/6 mice, and provide intraperitoneal injection of the TJM2010-5 dissolved in 0.5% CMC on day 0 to day 3, and day 5, 7, 9, 11, 13, 15 after the operation, the does is 150 mg/kg/d;
The MR1 Group: take and transplant the skin of Balb/c mice to the back of C57bl/6 mice, and provide intraperitoneal injection of MR 1 on day 0, 1, 3, 7, 14 after the operation, the does is of 200 μg/d; […]

Balb/c mice = assay: AOM/DSS chronic colitis and colitis-associated colorectal cancer (CAC) model
Description: Construct the chronic colitis and colitis-associated colorectal cancer (CAC) model: apply intraperitoneal injection of 10 mg/Kg azoxymethane (AOM) (Sigma-Aldrich Chemical) to 40Balb/c mice, and start to execute three cycles of feeding of drinking water containing 2.5% of dextran sodium sulfate (DSS) (MP Biomedicals) 7 days later, and each cycle consists one week of feeding DSS water and two weeks of feeding common fresh water. Then, observe them in the following 10 weeks. […] 100% of mice in this group have colorectal cancer.
TJM2010-5 treatment group: Provide intragastric administration of TJM2010-5 of 50 mg/kg to 20 Balb/c mice in two days before providing the treatment mentioned above, and observe them in ten weeks.
Mechanism study: Take the specimen of serum, colon, and spleen etc. from 4 mice in each group 2 weeks and 7 weeks later to detect the infiltration of IRAK4 and inflammatory cytokines, macrophage and Gr-1^highCD11b^high MDSC, and the proportion of LPMCs (lamina propria mononuclearcells) F4/80^+CD11b^+ macrophage etc.
The experimental procedure is the same with that of the experiment on effect of TJM2010-5 in preventing and treating colitis and colorectal cancer: Apply intragastric administration of TJM2010-1, TJM2010-2, TJM2010-3, TJM2010-4, TJM2010-5 of 50 mg/kg to 20 Balb/c mice in each group of totally 6 groups, and then, observe them in the following 10 weeks. The mice with colitis and colorectal cancer in the group corresponding to TJM2010-5 and TJM2010-1, TJM2010-2, TJM2010-3, TJM2010-4, TJM2010-5 accounts 0%, 71.52%, 42.28%, 60.19%, 81.34% respectively; 2. TJM2010-5 can 100% prevent and cure chronic colitis and prevent the colorectal cancer incurred by chronic colitis. […] Other aminothiazole compound has no or little such curative effect.

## O=C(CCN1CCN(Cc2ccccc2)CC1)Nc1nc(-c2ccccc2)cs1 [TJM2010-5, 3-(4-benzylpiperazin-1-yl)-N-(4-phenylthiazol-2-yl) propanamide]
Mice with endoxemia
  death incurred by endotoxin: effectively delay
  lethality of endotoxin: reduce
[1]
  effect on tolerance induction of the skin graft: no obvious effect
Balb/c mice; 50 mg/kg intragastric
  colitis finding: No apparent colitis
Balb/c mice; 50 mg/kg intragastric, 20 Balb/c mice per group, observed 10 weeks
  mice with colitis and colorectal cancer: 0%
Balb/c mice; 50 mg/kg intragastric, FIG. 12A
  weights vs untreated group: obviously higher than that of untreated group
Balb/c mice; 50 mg/kg intragastric, FIG. 12B
  survival rate vs control group: obviously higher than that of control group
Balb/c mice; FIG. 12C
  mice having colitis and colorectal cancer: no mice
Balb/c mice; FIG. 13A
  activation of IRAK4: inhibit
  p-IRAK4: reduce
Balb/c mice; FIG. 13B
  activation of NF-κB p65: inhibit
Balb/c mice; FIG. 13C
  generation of G-CSF vs control group: obviously lower than those of control group
  generation of IL-6 vs control group: obviously lower than those of control group
  generation of MIP-1β vs control group: obviously lower than those of control group
  generation of TGF-β1 vs control group: obviously lower than those of control group
  generation of TNF-α vs control group: obviously lower than those of control group
Balb/c mice; FIG. 13D
  level of IL-6 mRNA vs control group: obviously lower than those of control group
  level of TGF-β1 mRNA vs control group: obviously lower than those of control group
Balb/c mice; FIG. 14
  infiltration of macrophage: reduce
Balb/c mice; FIG. 14B
  F4/80+CD11b+ tumor-associated macrophage in LPMCs: reduces
Balb/c mice; FIG. 14C
  infiltration of Gr-1highCD11bhigh MDSC (myeloid suppressor cells): reduce
Balb/c mice; FIG. 14D
  expression of IL-6: reduce
Balb/c mice; intragastric
  prevention and cure of chronic colitis and prevention of colorectal cancer: 100%
